Measurements from PMC7822874, “Chemoprotective antimalarials identified through quantitative high-throughput screening of Plasmodium blood and liver stage parasites” (Scientific Reports, 2021).
Where two headings read alike, the source gives them in different places.

Experiments:
HepG2-A16-CD81EGFP cells = conditions: for HepG2 1uM growth rep1 / HepG2 1uM growth rep2: HepG2, 1 µM compound treatment (10 mM stocks); for HepG2 1uM growth rep1 / HepG2 3uM growth rep1: replicate 1, normalized; for HepG2 1uM growth rep1 / HepG2 1uM growth rep2 / HepG2 3uM growth rep1 / HepG2 3uM growth rep2: average of 2 wells; for HepG2 1uM growth rep2 / HepG2 3uM growth rep2: replicate 2, normalized; for HepG2 3uM growth rep1 / HepG2 3uM growth rep2: HepG2, 3 µM compound treatment (10 mM stocks)
in vitro = conditions: human, HepG2-A16-CD81EGFP cells, uninfected
[1] = tested on: P. berghei-ANKA-GFP-LucCON liver stage parasites in HepG2-A16-CD81EGFP cells; experiment: P. berghei liver stage Pb-Luc assay, Method 1 (UCSD, 1536-well); format: cell-based, Plasmodium berghei; conditions: Plasmodium berghei, 48 h, P. berghei liver stage, average of 2 wells on a 1536 well plate; for activity at 1 µM: 1 µM compound treatment (10 mM stocks); for activity at 3 µM: 3 µM compound treatment (10 mM stocks)
[2] = tested on: Plasmodium falciparum Dd2 asexual blood stage parasites; experiment: microbe, parasite or virus in culture; parameters: species or system Plasmodium falciparum Dd2 in human erythrocytes; single determination (one 11-point concentration-response curve); conditions: Plasmodium falciparum, DD2, Erythrocyte, 72 h; read-out: AC50
[3] = replicate 1, normalized, read-out: PbLuc 1uM growth rep1
[4] = replicate 2, normalized, read-out: PbLuc 1uM growth rep2
[5] = replicate 1, normalized, read-out: PbLuc 3uM growth rep1
[6] = replicate 2, normalized, read-out: PbLuc 3uM growth rep2

## CCN(c1ccccc1)[S+](=O)([O-])c1ccc(NC(=O)c2cc(=O)c3cc(C)ccc3o2)cc1 [NCGC00115963-01]
HepG2-A16-CD81EGFP cells
  HepG2 viability, fourth HepG2 column: 95.01%
  HepG2 viability, second HepG2 column: 97.84%
  HepG2 viability, third HepG2 column: 94.20%
In vitro
  viability at 48 h: 97.5%

## Cc1ccnc(NC(=O)c2cccc(S(=O)(=O)N3CCCc4ccccc43)c2)c1 [MLS001159724-01]
[1]; [3]
  activity at 1 µM: 100%
[1]; [4]
  activity at 1 µM: 97%
[1]; [5]
  activity at 3 µM: 38%
[1]; [6]
  activity at 3 µM: 52%
HepG2-A16-CD81EGFP cells
  HepG2 1uM growth rep1: 101%
  HepG2 1uM growth rep2: 95%
  HepG2 3uM growth rep1: 90%
  HepG2 3uM growth rep2: 89%
[2]
  AC50: 2370 nM

## COc1ccc(-n2nc(C(=O)NCC(=O)N3CCN(c4ccccc4OC)CC3)c3ccccc3c2=O)c(OC)c1 [MLS000936211-01]
[1]; [3]
  activity at 1 µM: 82%
[1]; [4]
  activity at 1 µM: 118%
[1]; [5]
  activity at 3 µM: 90%
[1]; [6]
  activity at 3 µM: 112%
HepG2-A16-CD81EGFP cells
  HepG2 1uM growth rep1: 89%
  HepG2 1uM growth rep2: 88%
  HepG2 3uM growth rep1: 92%
  HepG2 3uM growth rep2: 89%
[2]
  AC50: 2110 nM

## Nc1nonc1-n1nnc(C(=O)N/N=C/c2ccc(Br)cc2)c1-c1ccc2c(c1)OCO2 [MLS001142619-01]
[1]; [3]
  activity at 1 µM: 115%
[1]; [4]
  activity at 1 µM: 112%
[1]; [5]
  activity at 3 µM: 108%
[1]; [6]
  activity at 3 µM: 122%
HepG2-A16-CD81EGFP cells
  HepG2 1uM growth rep1: 91%
  HepG2 1uM growth rep2: 88%
  HepG2 3uM growth rep1: 86%
  HepG2 3uM growth rep2: 93%
[2]
  AC50: 422 nM

## Cc1ccc(Sc2ccc(NC(=O)CCl)cc2)cc1C [MLS000334846-01]
[1]; [3]
  activity at 1 µM: 124%
[1]; [4]
  activity at 1 µM: 83%
[1]; [5]
  activity at 3 µM: 88%
[1]; [6]
  activity at 3 µM: 81%
HepG2-A16-CD81EGFP cells
  HepG2 1uM growth rep1: 92%
  HepG2 1uM growth rep2: 91%
  HepG2 3uM growth rep1: 92%
  HepG2 3uM growth rep2: 96%
[2]
  AC50: 9440 nM

## CCC(=O)N1CCc2cc(Br)cc(S(=O)(=O)N3CCCCC3CC)c21 (stereo not shown) [MLS000936752-01]
[1]; [3]
  activity at 1 µM: 89%
[1]; [4]
  activity at 1 µM: 100%
[1]; [5]
  activity at 3 µM: 89%
[1]; [6]
  activity at 3 µM: 116%
HepG2-A16-CD81EGFP cells
  HepG2 1uM growth rep1: 106%
  HepG2 1uM growth rep2: 96%
  HepG2 3uM growth rep1: 87%
  HepG2 3uM growth rep2: 93%
[2]
  AC50: 1060 nM

## Oc1c(Cl)cc(Cl)cc1CN1CCN(Cc2ccccc2)CC1 [MLS000106505-01]
[1]; [3]
  activity at 1 µM: 108%
[1]; [4]
  activity at 1 µM: 103%
[1]; [5]
  activity at 3 µM: 88%
[1]; [6]
  activity at 3 µM: 103%
HepG2-A16-CD81EGFP cells
  HepG2 1uM growth rep1: 105%
  HepG2 1uM growth rep2: 94%
  HepG2 3uM growth rep1: 90%
  HepG2 3uM growth rep2: 94%
[2]
  AC50: 668 nM

## O=C(c1ccc([N+](=O)[O-])o1)N1CCN(c2nc3c(Cl)cccc3s2)CC1 [MLS001234208-01]
[1]; [3]
  activity at 1 µM: 67%
[1]; [4]
  activity at 1 µM: 72%
[1]; [5]
  activity at 3 µM: 36%
[1]; [6]
  activity at 3 µM: 52%
HepG2-A16-CD81EGFP cells
  HepG2 1uM growth rep1: 103%
  HepG2 1uM growth rep2: 93%
  HepG2 3uM growth rep1: 86%
  HepG2 3uM growth rep2: 94%
[2]
  AC50: 4220 nM

## CN(C)Cc1c(O)ccc2oc(Cc3ccccc3)cc12 [MLS000039159-01]
[1]; [3]
  activity at 1 µM: 98%
[1]; [4]
  activity at 1 µM: 102%
[1]; [5]
  activity at 3 µM: 63%
[1]; [6]
  activity at 3 µM: 108%
HepG2-A16-CD81EGFP cells
  HepG2 1uM growth rep1: 108%
  HepG2 1uM growth rep2: 93%
  HepG2 3uM growth rep1: 87%
  HepG2 3uM growth rep2: 92%
[2]
  AC50: 422 nM

## O=C(Nc1ccc(Nc2ccncc2)cc1)c1ccc(Nc2ccnc3ccc([N+](=O)[O-])cc23)cc1 [MLS000766132-01]
[1]; [3]
  activity at 1 µM: 125%
[1]; [4]
  activity at 1 µM: 103%
[1]; [5]
  activity at 3 µM: 94%
[1]; [6]
  activity at 3 µM: 98%
HepG2-A16-CD81EGFP cells
  HepG2 1uM growth rep1: 92%
  HepG2 1uM growth rep2: 91%
  HepG2 3uM growth rep1: 89%
  HepG2 3uM growth rep2: 92%
[2]
  AC50: 750 nM

## COc1cccc(-c2c(C#N)c(N)nc3c2c(C)nn3-c2ccccc2)c1O [MLS001214341-01]
[1]; [3]
  activity at 1 µM: 118%
[1]; [4]
  activity at 1 µM: 95%
[1]; [5]
  activity at 3 µM: 106%
[1]; [6]
  activity at 3 µM: 118%
HepG2-A16-CD81EGFP cells
  HepG2 1uM growth rep1: 104%
  HepG2 1uM growth rep2: 95%
  HepG2 3uM growth rep1: 90%
  HepG2 3uM growth rep2: 91%
[2]
  AC50: 1500 nM

## CC1CCN(c2ccc(C(=O)NCc3ccco3)cc2[N+](=O)[O-])CC1 [MLS000389854-01]
[1]; [3]
  activity at 1 µM: 63%
[1]; [4]
  activity at 1 µM: 57%
[1]; [5]
  activity at 3 µM: 20%
[1]; [6]
  activity at 3 µM: 28%
HepG2-A16-CD81EGFP cells
  HepG2 1uM growth rep1: 91%
  HepG2 1uM growth rep2: 90%
  HepG2 3uM growth rep1: 88%
  HepG2 3uM growth rep2: 94%
[2]
  AC50: 6680 nM

## COc1ccc(OC)c(-n2c(S)nnc2-c2cccc(O)c2)c1 [MLS000089016-01]
[1]; [3]
  activity at 1 µM: 141%
[1]; [4]
  activity at 1 µM: 98%
[1]; [5]
  activity at 3 µM: 86%
[1]; [6]
  activity at 3 µM: 109%
HepG2-A16-CD81EGFP cells
  HepG2 1uM growth rep1: 97%
  HepG2 1uM growth rep2: 93%
  HepG2 3uM growth rep1: 90%
  HepG2 3uM growth rep2: 96%
[2]
  AC50: 4220 nM

## Cc1cc(C)n(-c2nnc(N3CCN(c4ccccc4)CC3)nn2)n1 [MLS000695202-01]
[1]; [3]
  activity at 1 µM: 122%
[1]; [4]
  activity at 1 µM: 82%
[1]; [5]
  activity at 3 µM: 91%
[1]; [6]
  activity at 3 µM: 76%
HepG2-A16-CD81EGFP cells
  HepG2 1uM growth rep1: 99%
  HepG2 1uM growth rep2: 95%
  HepG2 3uM growth rep1: 90%
  HepG2 3uM growth rep2: 98%
[2]
  AC50: 596 nM

## CCn1cnc2c(Nc3cc(F)cc(F)c3)nc(C#N)nc21 [MLS002471782-01]
[1]; [3]
  activity at 1 µM: 155%
[1]; [4]
  activity at 1 µM: 128%
[1]; [5]
  activity at 3 µM: 149%
[1]; [6]
  activity at 3 µM: 187%
HepG2-A16-CD81EGFP cells
  HepG2 1uM growth rep1: 88%
  HepG2 1uM growth rep2: 82%
  HepG2 3uM growth rep1: 83%
  HepG2 3uM growth rep2: 89%
[2]
  AC50: 2370 nM

## Cc1noc(C)c1CSc1nc2sc3c(c2c(=O)n1C)CCCC3 [MLS000564913-01]
[1]; [3]
  activity at 1 µM: 120%
[1]; [4]
  activity at 1 µM: 107%
[1]; [5]
  activity at 3 µM: 61%
[1]; [6]
  activity at 3 µM: 89%
HepG2-A16-CD81EGFP cells
  HepG2 1uM growth rep1: 92%
  HepG2 1uM growth rep2: 88%
  HepG2 3uM growth rep1: 88%
  HepG2 3uM growth rep2: 92%
[2]
  AC50: 8410 nM

## Cc1ccc(-c2c(C(=O)N/N=C/c3cccc(Cl)c3)nnn2-c2nonc2N)cc1 [MLS001139410-01]
[1]; [3]
  activity at 1 µM: 143%
[1]; [4]
  activity at 1 µM: 123%
[1]; [5]
  activity at 3 µM: 105%
[1]; [6]
  activity at 3 µM: 91%
HepG2-A16-CD81EGFP cells
  HepG2 1uM growth rep1: 90%
  HepG2 1uM growth rep2: 91%
  HepG2 3uM growth rep1: 90%
  HepG2 3uM growth rep2: 94%
[2]
  AC50: 237 nM

## CCOC(=O)C1CCN(C(=O)c2cc(C(C)(C)C)nn2Cc2ccccc2)CC1 [MLS000860456-01]
[1]; [3]
  activity at 1 µM: 119%
[1]; [4]
  activity at 1 µM: 98%
[1]; [5]
  activity at 3 µM: 89%
[1]; [6]
  activity at 3 µM: 96%
HepG2-A16-CD81EGFP cells
  HepG2 1uM growth rep1: 105%
  HepG2 1uM growth rep2: 95%
  HepG2 3uM growth rep1: 88%
  HepG2 3uM growth rep2: 93%
[2]
  AC50: 4730 nM

## CCOC(=O)c1sc2nc3c(SCCC#N)cc(C(=O)c4cc(F)ccc4O)cn3c(=O)c2c1C [MLS000393119-01]
[1]; [3]
  activity at 1 µM: 107%
[1]; [4]
  activity at 1 µM: 121%
[1]; [5]
  activity at 3 µM: 76%
[1]; [6]
  activity at 3 µM: 92%
HepG2-A16-CD81EGFP cells
  HepG2 1uM growth rep1: 91%
  HepG2 1uM growth rep2: 92%
  HepG2 3uM growth rep1: 89%
  HepG2 3uM growth rep2: 93%
[2]
  AC50: 1680 nM
